Assay results reported in publication PMC4129175, “HPLC-Fingerprints and Antioxidant Constituents of Phyla nodiflora” (The Scientific World Journal, 2014).
Where two headings read alike, the source gives them in different places.

Key:
[1] = design: method as in Lan et al. 2013 [15]; settings: positive control; ref Lan et al. 2013 [15]; cited from earlier work
[2] = design: method as in Lan et al. 2013 [15]; settings: positive control; ref Lan et al. 2013 [15]; cited from earlier work; remark: listed apart in the source
[3] = design: method as in Lan et al. 2013 [15]; settings: positive control; ref Lan et al. 2013 [15]; cited from earlier work; remark: listed apart in the source
[4] = ABTS cation radical (ABTS∙+) decolorization/scavenging assay; settings: concentration that scavenges 50% radicals; mean ± SD, n = 3
Description: The ABTS decolorization assay was performed as described, with slight modification. The ABTS cation radical (ABTS^∙+) was produced by reacting 7 mM stock solution of ABTS with 2.45 mM potassium persulfate (final concentration) and allowing the mixture to stand in the dark for 6–8 h at room temperature before use. The ABTS^∙+ solution was diluted to an absorbance of 0.7 ± 0.02 at 734 nm. Thirty microliters of samples of different concentrations were mixed with 170 μl of ABTS^∙+ working solution under a dark condition and shaken for 15 s. The absorbance was measured at 734 nm after 20 min. The scavenging capacity was calculated using the same formula as for the DPPH radical scavenging assay.

[5] = DPPH radical (DPPH∙) scavenging assay; settings: concentration that scavenges 50% radicals; mean ± SD, n = 3
Description: In the DPPH radical (DPPH^∙) scavenging assay, fifty microliters of samples of various concentrations were mixed with 150 μl of DPPH^∙ solution (0.1 mM) dissolved in methanol. Each mixture was allowed to stand for 30 min and measured at 517 nm using a multiplate spectrophotometer (μQuant, Bio-Tek, USA). The scavenging ability was calculated using the following formula: (1) Scavenging ability (%) =(1−sample absorbance/control absorbance)×100%.

[6] = Superoxide anion radical (O2∙−) scavenging assay (xanthine/xanthine oxidase, NBT); assay type: biochemical; settings: concentration that scavenges 50% radicals; mean ± SD, n = 3
Description: (§1) The procedures of O2 ^∙− scavenging activity and mushroom tyrosinase inhibitory effect were performed as previous report. In the O2 ^∙− scavenging assay, xanthine (0.1 mM, 15 μl) in 50 mM phosphate buffer (pH 7.4), NBT (25 μM, 16 μl), EDTA (0.1 μM, 14 μl), and 100 μl of various concentrations of test compounds were mixed in the 96-well plates. Reactions were initiated by adding 0.5 U xanthine oxidase. After 30 min, the absorbance of each mixture was measured at 540 nm. In the mushroom tyrosinase inhibitory assay, L-tyrosine (2 mM, 80 μl) in 50 mM phosphate buffer (pH 6.5) and various concentrations of test compounds (100 μl) were added to 96-well plates. After 10 min incubation, 20 U mushroom tyrosinase was added to start the reaction. The absorbance of each mixture was measured at 490 nm after 30 min incubation. The O2 ^∙− scavenging capacity and the percentage inhibition of mushroom tyrosinase were calculated using the same formula as for the DPPH radical scavenging assay.

[7] = molecular target: mushroom tyrosinase (Agaricus bisporus, UniProt C7FF04); assay: Lineweaver-Burk kinetic study of tyrosinase inhibition; assay type: biochemical; settings: Lineweaver-Burk plot, various concentrations of tyrosine
Description: as §1
(§2) This study used Lineweaver-Burk plots to determine the inhibitory mode of test samples [15]. The kinetic study was performed in the presence or absence of test samples with various concentrations of tyrosine or xanthine as the substrate.
Figure 2 Lineweaver-Burk plot of tyrosinase inhibition of (a) onopordin (4) and (b) eupafolin (7) with various concentrations of tyrosine. […]

[8] = molecular target: T1, xanthine oxidase (XO) (Bos taurus, UniProt P80457); assay: Lineweaver-Burk kinetic study of xanthine oxidase inhibition; assay type: biochemical; settings: for Ki / Vmax (xanthine oxidase): xanthine as substrate
T1 construct: purchased Sigma-Aldrich; host or cells: buttermilk
Description: as §1, §2
Figure 1 Lineweaver-Burk plot of xanthine oxidase inhibition of eupafolin (7) with various concentrations of xanthine. (×) Without eupafolin, (▲) 5 μM of eupafolin, (●) 10 μM of eupafolin, and (○) 20 μM of eupafolin. Data are presented as mean ± SD of three independent experiments.

T1 sequence (P80457 whole entry): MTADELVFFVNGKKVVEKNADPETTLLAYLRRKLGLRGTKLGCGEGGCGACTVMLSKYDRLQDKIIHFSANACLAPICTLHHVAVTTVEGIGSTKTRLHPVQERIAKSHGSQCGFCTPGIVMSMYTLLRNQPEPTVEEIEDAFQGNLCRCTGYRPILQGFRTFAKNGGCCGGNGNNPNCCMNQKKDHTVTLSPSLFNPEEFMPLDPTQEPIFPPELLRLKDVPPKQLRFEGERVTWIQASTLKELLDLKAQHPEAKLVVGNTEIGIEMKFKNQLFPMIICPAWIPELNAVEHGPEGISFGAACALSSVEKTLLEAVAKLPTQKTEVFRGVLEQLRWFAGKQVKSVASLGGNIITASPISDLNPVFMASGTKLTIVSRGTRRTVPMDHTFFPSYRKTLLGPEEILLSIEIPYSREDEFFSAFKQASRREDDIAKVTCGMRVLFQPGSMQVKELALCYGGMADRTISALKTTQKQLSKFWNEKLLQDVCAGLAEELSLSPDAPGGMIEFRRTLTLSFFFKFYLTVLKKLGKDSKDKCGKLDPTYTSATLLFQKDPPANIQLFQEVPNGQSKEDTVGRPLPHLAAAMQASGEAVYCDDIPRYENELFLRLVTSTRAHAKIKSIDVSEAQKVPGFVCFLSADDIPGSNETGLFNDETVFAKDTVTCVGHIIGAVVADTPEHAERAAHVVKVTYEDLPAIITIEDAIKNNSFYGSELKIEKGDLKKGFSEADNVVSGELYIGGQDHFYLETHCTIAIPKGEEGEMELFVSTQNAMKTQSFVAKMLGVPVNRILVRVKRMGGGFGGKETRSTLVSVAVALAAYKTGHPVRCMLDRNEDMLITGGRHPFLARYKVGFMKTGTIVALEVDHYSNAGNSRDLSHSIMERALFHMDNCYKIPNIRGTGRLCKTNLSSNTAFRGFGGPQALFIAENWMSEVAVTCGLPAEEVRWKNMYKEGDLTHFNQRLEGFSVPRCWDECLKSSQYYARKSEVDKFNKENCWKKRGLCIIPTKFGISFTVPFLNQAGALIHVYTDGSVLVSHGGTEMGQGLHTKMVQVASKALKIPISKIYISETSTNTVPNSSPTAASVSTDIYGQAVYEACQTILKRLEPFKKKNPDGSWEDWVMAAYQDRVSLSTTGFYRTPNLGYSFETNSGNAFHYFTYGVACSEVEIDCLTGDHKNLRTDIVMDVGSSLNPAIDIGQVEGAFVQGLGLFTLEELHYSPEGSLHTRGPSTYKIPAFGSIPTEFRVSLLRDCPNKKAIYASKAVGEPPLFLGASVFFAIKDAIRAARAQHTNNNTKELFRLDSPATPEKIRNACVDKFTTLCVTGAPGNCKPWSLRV
Chain of mushroom tyrosinase (C7FF04 1-392): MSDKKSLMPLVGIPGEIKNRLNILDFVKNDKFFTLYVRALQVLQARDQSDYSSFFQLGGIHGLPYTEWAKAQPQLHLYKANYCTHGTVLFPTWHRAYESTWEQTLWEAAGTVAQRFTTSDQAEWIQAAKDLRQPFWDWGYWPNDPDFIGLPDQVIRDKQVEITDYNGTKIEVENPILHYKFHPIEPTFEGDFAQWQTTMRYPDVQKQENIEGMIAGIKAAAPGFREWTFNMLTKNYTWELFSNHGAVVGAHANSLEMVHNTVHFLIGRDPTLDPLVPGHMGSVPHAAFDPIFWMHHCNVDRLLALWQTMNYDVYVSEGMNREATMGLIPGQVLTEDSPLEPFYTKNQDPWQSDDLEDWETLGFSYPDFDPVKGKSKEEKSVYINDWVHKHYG
Chain of mushroom tyrosinase (G1K3P4 entry or part of it, further chain): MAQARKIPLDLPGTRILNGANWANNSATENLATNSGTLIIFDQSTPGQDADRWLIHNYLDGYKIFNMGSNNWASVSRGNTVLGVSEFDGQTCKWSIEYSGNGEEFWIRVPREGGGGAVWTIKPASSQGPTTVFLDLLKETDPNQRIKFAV

Row | Structure (SMILES) | ABTS∙+ SC50 [4] | DPPH∙ SC50 [5] | O2∙− SC50 [6] | also measured
1 | O=c1cc(-c2ccc(O)cc2)oc2cc(O)cc(O)c12 [Apigenin] |  |  |  | O2∙− SC50 [1]: 81.3 ± 2.0 µM; ABTS∙+ SC50 [2]: 159.6 ± 4.4 µM; DPPH∙ SC50 [3]: >300 µM
2 | COc1cc(-c2cc(=O)c3c(O)c(O)c(O)cc3o2)ccc1O [Compound 2, nodifloretin] | 62.2 ± 2.5 µM | 198.2 ± 3.8 µM | 42.3 ± 1.5 µM | 
3 | COc1c(O)cc(O)c2c(=O)cc(-c3ccc(O)cc3)oc12 [Compound 3, 4′-hydroxywogonin] | >300 µM | >300 µM | 59.9 ± 2.1 µM | 
4 | COc1c(O)cc(O)c2c(=O)cc(-c3ccc(O)c(O)c3)oc12 [Compound 4, onopordin] | 53.7 ± 3.9 µM | 24.7 ± 1.2 µM | 23.5 ± 0.5 µM | Inhibitory mode on tyrosinase [7]: mixed-type inhibitor
5 | COc1cc2oc(-c3ccc(O)c(O)c3)cc(=O)c2c(O)c1OC [Compound 5, cirsiliol] | 58.4 ± 2.7 µM | 21.8 ± 1.2 µM | 10.7 ± 1.3 µM | 
6 | COc1cc(-c2cc(=O)c3c(O)cc(O)c(O)c3o2)ccc1O [Compound 6, 5,7,8,4′-tetrahydroxy-3′-methoxyflavone] | >300 µM | >300 µM | 34.6 ± 2.4 µM | 
7 | COc1c(O)cc2oc(-c3ccc(O)c(O)c3)cc(=O)c2c1O [Compound 7, eupafolin] | 30.5 ± 1.2 µM | 24.1 ± 0.4 µM | 8.3 ± 0.4 µM | Inhibitory mode on tyrosinase [7]: competitive inhibitor; Ki ([8]; 7 at 5 μM): 4.48 µM; Vmax (xanthine oxidase) ([8]; 7 at 5 μM): 3.6 × 10^−2 ΔO.D./min; Ki ([8]; 7 at 10 μM): 5.05 µM; Vmax (xanthine oxidase) ([8]; 7 at 10 μM): 3.2 × 10^−2 ΔO.D./min; Ki ([8]; 7 at 20 μM): 8.93 µM; Vmax (xanthine oxidase) ([8]; 7 at 20 μM): 3.1 × 10^−2 ΔO.D./min; Inhibitory mode on xanthine oxidase ([8]; Lineweaver-Burk plot, various concentrations of xanthine): mixed-type inhibitor
8 | COc1c(O)cc2oc(-c3ccc(O)cc3)cc(=O)c2c1O [Compound 8, hispidulin] | 55.3 ± 3.8 µM | 57.5 ± 2.7 µM |  | 
9 | O=C1O[C@H]([C@@H](O)CO)C(O)=C1O [Vit. C, L-Ascorbic acid, reference compound] | 49.9 ± 2.1 µM | 64.6 ± 4.4 µM | 23.5 ± 1.7 µM | 
